According to patent US6358885B1, “Substituted phenylheterocyclic herbicides” (Mississippi State University, priority 1992, dated 2002):

Assays:
barnyardgrass [1] = assay: Test B preemergence/postemergence greenhouse plant response rating 0 to 10; assay type: in vivo, Echinochloa crus-galli; conditions: 0 to 10 scale
Procedure, shortened: (§1)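 Planted seeds are treated preemergence with compound dissolved in a non-phytotoxic solvent, while postemergence applications go onto plants of two to eighteen cm. Plants stay in the greenhouse twelve to sixteen days and are then rated visually relative to controls.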

cocklebur = assay: as above; assay type: in vivo, Xanthium pensylvanicum; conditions: 0 to 10 scale
Procedure, shortened: as §1

crabgrass = assay: as above; assay type: in vivo, Digitaria spp.; conditions: 0 to 10 scale
Procedure, shortened: as §1

giant foxtail [2] = assay: as above; assay type: in vivo, Setaria faberii; conditions: 0 to 10 scale
Procedure, shortened: as §1

lambsquarters = assay: as above; assay type: in vivo, Chenopodium album; conditions: 0 to 10 scale
Procedure, shortened: as §1

wild buckwheat = assay: as above; assay type: in vivo, Polygonum convolvulus; conditions: 0 to 10 scale
Procedure, shortened: as §1

wild oat [3] = assay: as above; assay type: in vivo, Avena fatua; conditions: 0 to 10 scale
Procedure, shortened: as §1

purple nutsedge = assay: as above; assay type: in vivo, Cyperus rotundus; conditions: 0 to 10 scale
Procedure, shortened: as §1

chickweed = assay: Test C preemergence/postemergence greenhouse plant response rating 0 to 100; assay type: in vivo, Stellaria media; conditions: POSTEMERGENCE
Procedure, shortened: (§2)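 Compounds in non-phytotoxic solvent applied preemergence to sandy loam one day after planting, postemergence at the 1–4 leaf stage, or to ~2.5 cm floodwater over silt loam.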

cotton = assay: as above; assay type: in vivo, Gossypium hirsutum; conditions: POSTEMERGENCE
Procedure, shortened: as §2

downy brome = assay: as above; assay type: in vivo, Bromus tectorum; conditions: POSTEMERGENCE
Procedure, shortened: as §2

giant foxtail [4] = assay: as above; assay type: in vivo, Setaria faberii; conditions: POSTEMERGENCE
Procedure, shortened: as §2

rape = assay: as above; assay type: in vivo, Brassica napus; conditions: POSTEMERGENCE
Procedure, shortened: as §2

soybean = assay: as above; assay type: in vivo, Glycine max; conditions: POSTEMERGENCE
Procedure, shortened: as §2

wild oat [5] = assay: as above; assay type: in vivo, Avena fatua; conditions: POSTEMERGENCE
Procedure, shortened: as §2

rice = assay: Test C flood test plant response rating 0 to 100; assay type: in vivo, Oryza sativa
Procedure, shortened: as §2

umbrella sedge = assay: Test C flood test plant response rating 0 to 100; assay type: in vivo, Cyperus difformis
Procedure, shortened: as §2

barnyardgrass [6] = assay: Test C flood test plant response rating 0 to 100; assay type: in vivo, Echinochloa crus-galli
Procedure, shortened: as §2

[7] = POSTEMERGENCE section, flood test, Rate 1 g/ha
[8] = POSTEMERGENCE section, flood test, Rate 4 g/ha
[9] = Rate 16 g/ha, under POSTEMERGENCE head (flood test species)
[10] = flood test species listed under POSTEMERGENCE, 62 g/ha, 0 to 100 scale

COCN1C(=O)COc2cc(F)c(-c3nn4c(c3Br)CCCC4)cc21 [Compound 67]
Plant response rating, Barnyardgrass (barnyardgrass [1]; POSTEMERGENCE, Rate 10 g/ha): 5 | Plant response rating, Barnyardgrass (barnyardgrass [1]; POSTEMERGENCE, Rate 50 g/ha): 6 | Plant response rating, Barnyardgrass (barnyardgrass [1]; PREEMERGENCE, Rate 10 g/ha): 2 | Plant response rating, Barnyardgrass (barnyardgrass [1]; PREEMERGENCE, Rate 50 g/ha): 6 | Plant response rating, Cocklebur (cocklebur; POSTEMERGENCE, Rate 10 g/ha): 8 | Plant response rating, Cocklebur (cocklebur; POSTEMERGENCE, Rate 50 g/ha): 9 | Plant response rating, Cocklebur (cocklebur; PREEMERGENCE, Rate 10 g/ha): 0 | Plant response rating, Cocklebur (cocklebur; PREEMERGENCE, Rate 50 g/ha): 0 | Plant response rating, Crabgrass (crabgrass; POSTEMERGENCE, Rate 10 g/ha): 5 | Plant response rating, Crabgrass (crabgrass; POSTEMERGENCE, Rate 50 g/ha): 6 | Plant response rating, Crabgrass (crabgrass; PREEMERGENCE, Rate 10 g/ha): 0 | Plant response rating, Crabgrass (crabgrass; PREEMERGENCE, Rate 50 g/ha): 2 | Plant response rating, Giant foxtail (giant foxtail [2]; POSTEMERGENCE, Rate 10 g/ha): 5 | Plant response rating, Giant foxtail (giant foxtail [2]; POSTEMERGENCE, Rate 50 g/ha): 6 | Plant response rating, Giant foxtail (giant foxtail [2]; PREEMERGENCE, Rate 10 g/ha): 0 | Plant response rating, Giant foxtail (giant foxtail [2]; PREEMERGENCE, Rate 50 g/ha): 2 | Plant response rating, Lambsquarter (lambsquarters; POSTEMERGENCE, Rate 10 g/ha): 9 | Plant response rating, Lambsquarter (lambsquarters; POSTEMERGENCE, Rate 50 g/ha): 10 | Plant response rating, Lambsquarter (lambsquarters; PREEMERGENCE, Rate 50 g/ha): 10 | Plant response rating, Wild buckwheat (wild buckwheat; POSTEMERGENCE, Rate 10 g/ha): 10 | Plant response rating, Wild buckwheat (wild buckwheat; POSTEMERGENCE, Rate 50 g/ha): 10 | Plant response rating, Wild buckwheat (wild buckwheat; PREEMERGENCE, Rate 50 g/ha): 10 | Plant response rating, Wild oat (wild oat [3]; POSTEMERGENCE, Rate 10 g/ha): 6 | Plant response rating, Wild oat (wild oat [3]; POSTEMERGENCE, Rate 50 g/ha): 7 | Plant response rating, Wild oat (wild oat [3]; PREEMERGENCE, Rate 50 g/ha): 5 | Plant response rating, Nutsedge (purple nutsedge; POSTEMERGENCE, Rate 10 g/ha): 1 | Plant response rating, Nutsedge (purple nutsedge; POSTEMERGENCE, Rate 50 g/ha): 3 | Plant response rating, Nutsedge (purple nutsedge; PREEMERGENCE, Rate 50 g/ha): 0 | Plant response rating, Chickweed (chickweed; 62 g/ha, 0 to 100 scale): 100 | Plant response rating (0 to 100), Chickweed (chickweed; Rate 1 g/ha): 70 | Plant response rating (0 to 100), Chickweed (chickweed; Rate 4 g/ha): 70 | Plant response rating (0 to 100), Chickweed (chickweed; Rate 16 g/ha): 95 | Plant response rating, Cotton (cotton; 62 g/ha, 0 to 100 scale): 100 | Plant response rating (0 to 100), Cotton (cotton; Rate 1 g/ha): 95 | Plant response rating (0 to 100), Cotton (cotton; Rate 4 g/ha): 100 | Plant response rating (0 to 100), Cotton (cotton; Rate 16 g/ha): 100 | Plant response rating Downy Brome (downy brome; 62 g/ha, 0 to 100 scale): 60 | Plant response rating (0 to 100), Downy Brome (downy brome; Rate 1 g/ha): 20 | Plant response rating (0 to 100), Downy Brome (downy brome; Rate 4 g/ha): 50 | Plant response rating (0 to 100), Downy Brome (downy brome; Rate 16 g/ha): 60 | Plant response rating, Giant foxtail (giant foxtail [4]; 62 g/ha, 0 to 100 scale): 40 | Plant response rating (0 to 100), Giant foxtail (giant foxtail [4]; Rate 1 g/ha): 10 | Plant response rating (0 to 100), Giant foxtail (giant foxtail [4]; Rate 4 g/ha): 20 | Plant response rating (0 to 100), Giant foxtail (giant foxtail [4]; Rate 16 g/ha): 30 | Plant response rating, Rape (rape; 62 g/ha, 0 to 100 scale): 100 | Plant response rating (0 to 100), Rape (rape; Rate 1 g/ha): 70 | Plant response rating (0 to 100), Rape (rape; Rate 4 g/ha): 70 | Plant response rating (0 to 100), Rape (rape; Rate 16 g/ha): 90 | Plant response rating, Soybean (soybean; 62 g/ha, 0 to 100 scale): 95 | Plant response rating (0 to 100), Soybean (soybean; Rate 1 g/ha): 30 | Plant response rating (0 to 100), Soybean (soybean; Rate 4 g/ha): 50 | Plant response rating (0 to 100), Soybean (soybean; Rate 16 g/ha): 80 | Plant response rating, Wild oat (wild oat [5]; 62 g/ha, 0 to 100 scale): 60 | Plant response rating (0 to 100), Wild oat (wild oat [5]; Rate 1 g/ha): 10 | Plant response rating (0 to 100), Wild oat (wild oat [5]; Rate 4 g/ha): 30 | Plant response rating (0 to 100), Wild oat (wild oat [5]; Rate 16 g/ha): 50 | Plant response rating (0 to 100), Rice Japonica (rice; [7]): 0 | Plant response rating (0 to 100), Rice Japonica (rice; [8]): 0 | Plant response rating (0 to 100), Rice Japonica (rice; [9]): 50 | Plant response rating Rice Japonica (rice; [10]): 90 | Plant response rating (0 to 100), Umbrella sedge (umbrella sedge; [7]): 0 | Plant response rating (0 to 100), Umbrella sedge (umbrella sedge; [8]): 0 | Plant response rating (0 to 100), Umbrella sedge (umbrella sedge; [9]): 30 | Plant response rating Umbrella sedge (umbrella sedge; [10]): 70 | Plant response rating (0 to 100), Barnyardgrass 2 (barnyardgrass [6]; [7]): 0 | Plant response rating (0 to 100), Barnyardgrass 2 (barnyardgrass [6]; [8]): 20 | Plant response rating (0 to 100), Barnyardgrass 2 (barnyardgrass [6]; [9]): 90 | Plant response rating Barnyardgrass 2 (barnyardgrass [6]; [10]): 95
